Source: patent publication US20250179078A1, “INHIBITORS OF NLRP3” (PTC THERAPEUTICS, INC., priority 2022, published 2025)

Target: T1, NLRP3 (Homo sapiens, UniProt Q96P20)
T1 construct: host or cells: THP-1 cells differentiated with PMA
Test: IL-1β Secretion Assay (NLRP3-dependent IL1β secretion in THP1 cells)
Assay type: cell-based
Details: PMA-differentiated THP-1 cells; compounds incubated 20 h; 2.5 μM Nigericin 3 h; HTRF IL-1β readout; read-out: IC50 IL-1β Inhibition
In short: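 THP-1 cells differentiated with 100 ng/mL PMA for 24 h, then given compound (7-point 3-fold series, 1:200 from DMSO) for 20 h in RPMI+5% FBS. NLRP3 activated with 2.5 μM nigericin for 3 h; secreted IL-1β measured by HTRF; IC50 from logistic fit of % inhibition.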

T1 sequence (Q96P20 whole entry): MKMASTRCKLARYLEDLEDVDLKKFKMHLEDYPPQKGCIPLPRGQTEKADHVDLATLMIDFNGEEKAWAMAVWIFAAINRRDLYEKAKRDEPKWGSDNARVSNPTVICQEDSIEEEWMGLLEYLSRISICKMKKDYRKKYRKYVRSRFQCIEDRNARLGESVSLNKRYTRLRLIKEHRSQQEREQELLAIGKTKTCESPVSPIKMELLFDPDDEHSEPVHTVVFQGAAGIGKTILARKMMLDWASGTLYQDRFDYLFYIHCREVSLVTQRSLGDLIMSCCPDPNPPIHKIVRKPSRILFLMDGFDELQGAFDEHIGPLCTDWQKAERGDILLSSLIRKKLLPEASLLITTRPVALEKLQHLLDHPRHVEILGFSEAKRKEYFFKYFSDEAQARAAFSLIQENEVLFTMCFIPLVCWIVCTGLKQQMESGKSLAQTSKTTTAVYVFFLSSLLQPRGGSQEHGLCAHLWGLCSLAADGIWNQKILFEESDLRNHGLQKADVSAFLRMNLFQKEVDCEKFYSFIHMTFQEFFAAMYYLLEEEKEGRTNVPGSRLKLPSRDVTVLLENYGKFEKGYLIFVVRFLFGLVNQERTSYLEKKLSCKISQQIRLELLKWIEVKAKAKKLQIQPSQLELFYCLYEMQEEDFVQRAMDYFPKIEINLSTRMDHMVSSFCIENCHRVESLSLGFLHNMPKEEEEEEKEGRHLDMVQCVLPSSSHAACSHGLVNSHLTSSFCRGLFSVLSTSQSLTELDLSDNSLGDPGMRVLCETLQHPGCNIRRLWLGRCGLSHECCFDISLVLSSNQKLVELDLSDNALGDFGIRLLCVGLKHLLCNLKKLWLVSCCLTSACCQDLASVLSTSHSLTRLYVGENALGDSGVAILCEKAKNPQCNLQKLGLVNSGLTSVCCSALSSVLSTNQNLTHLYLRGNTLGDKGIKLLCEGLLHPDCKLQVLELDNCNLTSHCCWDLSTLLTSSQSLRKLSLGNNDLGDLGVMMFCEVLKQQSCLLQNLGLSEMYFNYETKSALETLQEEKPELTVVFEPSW

Compound	IC50 [nM]
O[C@@H]1CCCC[C@H]1Nc1nnc(-c2ccc(OC(F)F)cc2OC(F)(F)F)c2cncn12 [Compound 246, (1R,2R)-2-({1-[4-(difluoromethoxy)-2-(trifluoromethoxy)phenyl]imidazo[1,5-d][1,2,4]triazin-4-yl}amino)cyclohexan-1-ol]	< 1
Cc1cc2c(-c3ccc(C(F)(F)F)cc3C(F)(F)F)nnc(NC3CCNC3=O)n2c1 (centres unmarked) [Compound 161, 3-({1-[2,4-bis(trifluoromethyl)phenyl]-7-methylpyrrolo[1,2-d][1,2,4]triazin-4-yl}amino)pyrrolidin-2-one]	1 to 10
COc1ccc(-c2nnc(N[C@@H]3CCCC[C@H]3O)n3cncc23)c(C(F)(F)C(F)(F)F)c1 [Compound 316, (1R,2R)-2-({1-[4-methoxy-2-(pentafluoroethyl)phenyl]imidazo[1,5-d][1,2,4]triazin-4-yl}amino)cyclohexan-1-ol]	10 to 100
COc1ccc(-c2nnc(N[C@H](C)c3cccc(O)c3)n3cncc23)c(OC(F)(F)F)c1 (single isomer, unassigned) [Compound 248]	≥ 300
COc1ccc(-c2nnc(N[C@@H]3CCCN(CCO)C3)n3cncc23)c(OC(F)(F)F)c1 [Compound 211, 2-[(3R)-3-({1-[4-methoxy-2-(trifluoromethoxy)phenyl]imidazo[1,5-d][1,2,4]triazin-4-yl}amino)piperidin-1-yl]ethan-1-ol]	< 1
CCN1CCC[C@@H](Nc2nnc(-c3ccc(C(F)(F)F)cc3OC(F)(F)F)c3cc(C)nn23)C1 [Compound 365, N-[(3R)-1-ethylpiperidin-3-yl]-2-methyl-4-[2-(trifluoromethoxy)-4-(trifluoromethyl)phenyl]pyrazolo[1,5-d][1,2,4]triazin-7-amine]	1 to 10
CN1CCC[C@H](CNc2nnc(-c3ccc(C(F)(F)F)cc3CC(F)(F)F)c3cccn23)C1 [Compound 147, N-{[(3R)-1-methylpiperidin-3-yl]methyl}-1-[2-(2,2,2-trifluoroethyl)-4-(trifluoromethyl)phenyl]pyrrolo[1,2-d][1,2,4]triazin-4-amine]	1 to 10
C[C@]1(O)C[C@@H](Nc2nnc(-c3ccc(C(F)(F)F)cc3C(F)(F)F)c3c(F)ccn23)C1 [Compound 38, (1s,3s)-3-({1-[2,4-bis(trifluoromethyl)phenyl]-8-fluoropyrrolo[1,2-d][1,2,4]triazin-4-yl}amino)-1-methylcyclobutan-1-ol]	10 to 100
CCN1CCC[C@@H](Nc2nnc(-c3ccc(C(F)(F)F)cc3OC(F)(F)F)c3cncn23)C1 [Compound 229, N-[(3R)-1-ethylpiperidin-3-yl]-1-[2-(trifluoromethoxy)-4-(trifluoromethyl)phenyl]imidazo[1,5-d][1,2,4]triazin-4-amine]	< 1
O=C1NCCC1Nc1nnc(-c2ccc(C3CC3)cc2CC(F)(F)F)c2cncn12 (centres unmarked) [Compound 350, 3-({1-[4-cyclopropyl-2-(2,2,2-trifluoroethyl)phenyl]imidazo[1,5-d][1,2,4]triazin-4-yl}amino)pyrrolidin-2-one]	1 to 10
CN1CCC[C@@H](Nc2nnc(-c3ccc(C4CC4)cc3CC(F)(F)F)c3cncn23)C1 [Compound 352, 1-[4-cyclopropyl-2-(2,2,2-trifluoroethyl)phenyl]-N-[(3R)-1-methylpiperidin-3-yl]imidazo[1,5-d][1,2,4]triazin-4-amine]	1 to 10
COc1ccc(-c2nnc(N[C@@H]3CCCN(CCO)C3)n3cncc23)c(C(F)(F)F)c1 [Compound 213, 2-[(3R)-3-({1-[4-methoxy-2-(trifluoromethyl)phenyl]imidazo[1,5-d][1,2,4]triazin-4-yl}amino)piperidin-1-yl]ethan-1-ol]	1 to 10
O[C@@H]1CCCC[C@@H](Nc2nnc(-c3ccc(C(F)(F)F)cc3CC(F)(F)F)c3cccn23)C1 (racemic) [Compound 129, (1R,3R)-3-({1-[2-(2,2,2-trifluoroethyl)-4-(trifluoromethyl)phenyl]pyrrolo[1,2-d][1,2,4]triazin-4-yl}amino)cycloheptan-1-ol AND (1S,3S)-3-({1-[2-(2,2,2-trifluoroethyl)-4-(trifluoromethyl)phenyl]pyrrolo[1,2-d][1,2,4]triazin-4-yl}amino)cycloheptan-1-ol]	1 to 10
COc1ccc(-c2nnc(NC(C)c3cccnc3)n3cncc23)c(OC(F)(F)F)c1 (single isomer, unassigned) [Compound 309]	10 to 100
O[C@H]1CCCC[C@H]1Nc1nnc(-c2ccc(C(F)(F)F)cc2CC(F)(F)F)c2cncn12 [Compound 401, (1S,2R)-2-({1-[2-(2,2,2-trifluoroethyl)-4-(trifluoromethyl)phenyl]imidazo[1,5-d][1,2,4]triazin-4-yl}amino)cyclohexan-1-ol]	10 to 100
COc1ccc(-c2nnc(Nc3cc[nH]n3)n3cncc23)c(OC(F)F)c1 [Compound 227, 1-[2-(difluoromethoxy)-4-methoxyphenyl]-N-(1H-pyrazol-3-yl)imidazo[1,5-d][1,2,4]triazin-4-amine]	10 to 100

The next lines start with the values.

IC50 [nM]	Compound
10 to 100	Cc1ccc(-c2nnc(N[C@H]3C[C@@](C)(O)C3)n3cncc23)c(OC(F)(F)F)c1 [Compound 332, (1s,3s)-1-methyl-3-({1-[4-methyl-2-(trifluoromethoxy)phenyl]imidazo[1,5-d][1,2,4]triazin-4-yl}amino)cyclobutan-1-ol]
< 1	COc1cc(C)c(-c2nnc(N[C@@H]3CCCN(C)C3)n3cccc23)c(F)c1 [Compound 118, 1-(2-fluoro-4-methoxy-6-methylphenyl)-N-[(3R)-1-methylpiperidin-3-yl]pyrrolo[1,2-d][1,2,4]triazin-4-amine]
1 to 10	Cc1ccc(-c2nnc(N[C@@H]3CCCN(C)C3)n3cccc23)c(OC(F)(F)F)c1 [Compound 36, N-[(3R)-1-methylpiperidin-3-yl]-1-[4-methyl-2-(trifluoromethoxy)phenyl]pyrrolo[1,2-d][1,2,4]triazin-4-amine]
< 1	CN1CC[C@@H](O)[C@@H](Nc2nnc(-c3ccc(OC(F)F)cc3OC(F)(F)F)c3cccn23)C1 [Compound 170, (3S,4R)-3-({1-[4-(difluoromethoxy)-2-(trifluoromethoxy)phenyl]pyrrolo[1,2-d][1,2,4]triazin-4-yl}amino)-1-methylpiperidin-4-ol]
1 to 10	O[C@H]1CCC[C@@H](Nc2nnc(-c3ccc(C(F)(F)F)cc3OC(F)(F)F)c3cccn23)C1 [Compound 122, (1S,3R)-3-({1-[2-(trifluoromethoxy)-4-(trifluoromethyl)phenyl]pyrrolo[1,2-d][1,2,4]triazin-4-yl}amino)cyclohexan-1-ol]
1 to 10	C[C@@H](O)CNc1nnc(-c2ccc(C(F)(F)F)cc2OC(F)F)c2cccn12 [Compound 63, (2R)-1-({1-[2-(difluoromethoxy)-4-(trifluoromethyl)phenyl]pyrrolo[1,2-d][1,2,4]triazin-4-yl}amino)propan-2-ol]
10 to 100	FC(F)(F)c1ccc(-c2nnc(N[C@@H]3CCCOC3)n3cncc23)c(C(F)(F)F)c1 [Compound 254, 1-[2,4-bis(trifluoromethyl)phenyl]-N-[(3R)-oxan-3-yl]imidazo[1,5-d][1,2,4]triazin-4-amine]
1 to 10	OC[C@H]1C[C@@H](Nc2nnc(-c3ccc(C(F)(F)F)cc3C(F)(F)F)c3cncn23)C1 [Compound 257, [(1s,3s)-3-({1-[2,4-bis(trifluoromethyl)phenyl]imidazo[1,5-d][1,2,4]triazin-4-yl}amino)cyclobutyl]methanol]
10 to 100	O=C1NCCCC1Nc1nnc(-c2ccc(C(F)(F)F)cc2C(F)(F)F)c2cncn12 (centres unmarked) [Compound 276, 3-({1-[2,4-bis(trifluoromethyl)phenyl]imidazo[1,5-d][1,2,4]triazin-4-yl}amino)piperidin-2-one]
1 to 10	CCc1ccc(-c2nnc(N[C@@H]3CCCN(C)C3)n3cccc23)c(OC(F)(F)F)c1 [Compound 42, 1-[4-ethyl-2-(trifluoromethoxy)phenyl]-N-[(3R)-1-methylpiperidin-3-yl]pyrrolo[1,2-d][1,2,4]triazin-4-amine]
< 1	CCN1CCC[C@@H](Nc2nnc(-c3ccc(OC)cc3OC(F)(F)F)c3c(F)ccn23)C1 [Compound 50, N-[(3R)-1-ethylpiperidin-3-yl]-8-fluoro-1-[4-methoxy-2-(trifluoromethoxy)phenyl]pyrrolo[1,2-d][1,2,4]triazin-4-amine]
1 to 10	Cc1ccc(-c2nnc(N[C@@H]3CCCC[C@@H]3O)n3cccc23)c(OC(F)F)c1 [Compound 137, (1S,2R)-2-({1-[2-(difluoromethoxy)-4-methylphenyl]pyrrolo[1,2-d][1,2,4]triazin-4-yl}amino)cyclohexan-1-ol]
10 to 100	FC(F)Oc1cc(C(F)(F)F)ccc1-c1nnc(N[C@@H]2CCCNC2)n2cccc12 [Compound 35, 1-[2-(difluoromethoxy)-4-(trifluoromethyl)phenyl]-N-[(3R)-piperidin-3-yl]pyrrolo[1,2-d][1,2,4]triazin-4-amine]
10 to 100	COc1ccc(-c2nnc(N[C@H]3CCC[C@@H](CO)C3)n3cccc23)c(OC(F)F)c1 [Compound 176, [(1R,3S)-3-({1-[2-(difluoromethoxy)-4-methoxyphenyl]pyrrolo[1,2-d][1,2,4]triazin-4-yl}amino)cyclohexyl]methanol]
10 to 100	CCN1CCC[C@@H](Nc2nnc(-c3ccc(C)cc3S(C)(=O)=O)c3cc(C)nn23)C1 [Compound 368, N-[(3R)-1-ethylpiperidin-3-yl]-4-[2-(methanesulfonyl)-4-methylphenyl]-2-methylpyrazolo[1,5-d][1,2,4]triazin-7-amine]
10 to 100	Cc1cc2c(-c3ccc(C(F)(F)F)cc3C(F)(F)F)nnc(N[C@H]3CCCC[C@@H]3O)n2c1 [Compound 132, (1S,2S)-2-({1-[2,4-bis(trifluoromethyl)phenyl]-7-methylpyrrolo[1,2-d][1,2,4]triazin-4-yl}amino)cyclohexan-1-ol]
